From paper PMC6751662, “Pharmacological and functional similarities of the human neuropeptide Y system in C. elegans challenges phylogenetic views on the FLP/NPR system” (Cell Communication and Signaling : CCS, 2019)

Key:
Assay type in all cases: cell-based, C. elegans
NPR-1 = molecular target: T1, NPR-1 (Caenorhabditis elegans, UniProt Q18534); assay: cAMP reporter gene assay, Gi/o (inhibition of forskolin-induced cAMP), NPR-1; parameters: host or cells: HEK293; details: inhibition of cAMP production induced by 1 µM forskolin (set to 1.00), transiently transfected HEK293 cells, mean of at least three independent experiments; for cAMP, x-fold of forskolin (mean), NPR-1: lower = higher Gi/o activity
T1 sequence (Q18534 1-457): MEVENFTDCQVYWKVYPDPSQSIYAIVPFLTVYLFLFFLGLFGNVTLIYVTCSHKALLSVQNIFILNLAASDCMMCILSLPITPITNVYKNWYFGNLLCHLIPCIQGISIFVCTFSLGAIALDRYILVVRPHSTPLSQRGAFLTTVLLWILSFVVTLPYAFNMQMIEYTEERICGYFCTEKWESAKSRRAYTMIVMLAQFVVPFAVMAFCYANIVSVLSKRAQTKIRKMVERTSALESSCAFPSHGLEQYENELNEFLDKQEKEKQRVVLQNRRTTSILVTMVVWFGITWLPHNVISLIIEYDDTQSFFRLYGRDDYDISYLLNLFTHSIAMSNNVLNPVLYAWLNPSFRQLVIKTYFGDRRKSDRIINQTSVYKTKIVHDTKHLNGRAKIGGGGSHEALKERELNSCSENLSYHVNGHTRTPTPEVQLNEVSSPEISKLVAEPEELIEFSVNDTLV
Method: (§1) Activation of Gs and Gi/o was assessed with a cAMP reporter gene assay. HEK293 cells grown to 70–80% confluency in 6-well plates were transiently co-transfected with vectors encoding the receptor and the cAMP reporter gene plasmid pGL4.29 [luc2P/CRE/Hygro] (Promega; 4 μg total, 1:1 ratio) using Metafectene Pro (3 μl/μg DNA; Biontex) following the manufacturer’s instructions. 16 h post transfection, the cells were seeded into white 384-well plates at a density of 20,000 cells/well. On the next day, the medium was removed and the cells were stimulated with 20 μl of peptide solution (or forskolin as positive control) in serum-free DMEM for 4 h. For measuring Gi/o activity, the peptide solutions additionally contained 1 μM forskolin to elevate cellular cAMP levels. After incubation, the luciferase substrate OneGlo in lysis buffer (Promega) was added and the luminescence was measured in a microplate reader Tecan Spark (Tecan). Data were analyzed with GraphPad Prism 5.03 and are shown as fold of basal or fold of forskolin in case of Gαi/o activity.
(§2) For in vitro activation, data is presented as mean ± SEM of at least three independent experiments conducted in technical triplicate. […] For the C. elegans NPRs, we considered the strongest response elicited by any of the peptides downstream of a particular receptor as the receptor’s maximal signal. This may or may not be the biological maximum that can be reached by the ‘true’ endogenous agonist. For the human receptors, the response to the established endogenous agonist reflected the maximal signal.

NPR-5b = molecular target: T2, NPR-5b (Caenorhabditis elegans, UniProt Q6F3C9); assay: cAMP reporter gene assay, Gi/o (with forskolin), NPR-5b; details: transiently transfected HEK293 cells, mean of at least three independent experiments; for Gi (Gs) [x-fold of forskolin], NPR-5b, mean: with 1 µM forskolin (set to 1.00), increase of cellular cAMP consistent with Gs coupling; for cAMP, x-fold of forskolin (mean), NPR-5b: 1 µM forskolin set to 1.00, values > 1 = cAMP stimulation
T2 sequence (Q6F3C9 1-433): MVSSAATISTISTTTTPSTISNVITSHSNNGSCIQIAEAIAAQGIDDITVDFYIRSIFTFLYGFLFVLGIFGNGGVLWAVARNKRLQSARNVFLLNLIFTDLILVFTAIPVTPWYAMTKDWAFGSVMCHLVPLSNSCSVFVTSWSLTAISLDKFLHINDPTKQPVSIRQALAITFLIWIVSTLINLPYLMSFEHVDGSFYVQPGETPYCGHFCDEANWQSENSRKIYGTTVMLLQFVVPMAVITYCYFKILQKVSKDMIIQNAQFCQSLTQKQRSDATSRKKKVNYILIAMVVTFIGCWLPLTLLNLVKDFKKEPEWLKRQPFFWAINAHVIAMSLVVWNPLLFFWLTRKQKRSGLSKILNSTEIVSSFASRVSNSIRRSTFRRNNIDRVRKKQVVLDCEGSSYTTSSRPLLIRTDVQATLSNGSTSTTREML
Method: as §1, with “(Tecan).” for “(Tecan). Data were analyzed with GraphPad Prism 5.03 and are shown as fold of basal or fold of forskolin in case of Gαi/o activity.”
as §2

NPR-3 = molecular target: T3, NPR-3 (Caenorhabditis elegans, UniProt P90745); assay: cAMP reporter gene assay, Gi/o (inhibition of forskolin-induced cAMP), NPR-3; details: transiently transfected HEK293 cells, mean of at least three independent experiments; for Gi (Gs) [x-fold of forskolin], NPR-3, mean: inhibition of cAMP production induced by 1 µM forskolin (set to 1.00); for cAMP, x-fold of forskolin (mean), NPR-3: 1 µM forskolin set to 1.00
T3 construct: expressed in transfected cells; host or cells: HEK293
T3 sequence (P90745 1-376): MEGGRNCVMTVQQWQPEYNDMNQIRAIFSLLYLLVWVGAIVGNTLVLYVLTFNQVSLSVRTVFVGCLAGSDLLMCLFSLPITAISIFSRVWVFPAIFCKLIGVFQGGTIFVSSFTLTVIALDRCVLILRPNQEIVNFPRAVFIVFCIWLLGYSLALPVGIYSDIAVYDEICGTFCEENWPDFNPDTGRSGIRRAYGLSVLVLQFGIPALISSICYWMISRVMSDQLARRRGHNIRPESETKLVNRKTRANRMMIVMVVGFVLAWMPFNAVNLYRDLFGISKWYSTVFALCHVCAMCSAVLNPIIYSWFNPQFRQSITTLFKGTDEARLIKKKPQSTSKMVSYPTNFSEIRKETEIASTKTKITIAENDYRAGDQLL
Method: as §1, §2

NPR-6 = assay: cAMP reporter gene assay, Gi/o (inhibition of forskolin-induced cAMP), NPR-6; details: transiently transfected HEK293 cells, mean of at least three independent experiments; for Gi (Gs) [x-fold of forskolin], NPR-6, mean: inhibition of cAMP production induced by 1 µM forskolin (set to 1.00); for cAMP, x-fold of forskolin (mean), NPR-6: 1 µM forskolin set to 1.00
Method: as §1, §2

Row | Substance | Gi (Gs) [x-fold of forskolin], NPR-1, mean (NPR-1; 0.1 µM peptide) | Gi (Gs) [x-fold of forskolin], NPR-1, mean (NPR-1; 10 µM peptide) | Gi (Gs) [x-fold of forskolin], NPR-5b, mean (NPR-5b; 0.1 µM peptide) | Gi (Gs) [x-fold of forskolin], NPR-5b, mean (NPR-5b; 10 µM peptide) | Gi (Gs) [x-fold of forskolin], NPR-3, mean (NPR-3; 0.1 µM peptide) | Gi (Gs) [x-fold of forskolin], NPR-3, mean (NPR-3; 10 µM peptide) | Gi (Gs) [x-fold of forskolin], NPR-6, mean (NPR-6; 0.1 µM peptide) | Gi (Gs) [x-fold of forskolin], NPR-6, mean (NPR-6; 10 µM peptide) | cAMP, x-fold of forskolin (mean), NPR-1 (NPR-1; 0.1 µM peptide) | cAMP, x-fold of forskolin (mean), NPR-1 (NPR-1; 10 µM peptide) | cAMP, x-fold of forskolin (mean), NPR-5b (NPR-5b; 0.1 µM peptide) | cAMP, x-fold of forskolin (mean), NPR-5b (NPR-5b; 10 µM peptide) | cAMP, x-fold of forskolin (mean), NPR-3 (NPR-3; 0.1 µM peptide) | cAMP, x-fold of forskolin (mean), NPR-3 (NPR-3; 10 µM peptide) | cAMP, x-fold of forskolin (mean), NPR-6 (NPR-6; 0.1 µM peptide) | cAMP, x-fold of forskolin (mean), NPR-6 (NPR-6; 10 µM peptide)
1 | GLGPRPLAF-NH2 [[R8A]FLP-21, R8A control peptide of FLP-21, penultimate arginine exchanged for an alanine] | 0.90 x-fold of forskolin | 0.89 x-fold of forskolin | 1.06 x-fold of forskolin | 0.97 x-fold of forskolin | 1.20 x-fold of forskolin | 1.38 x-fold of forskolin | 1.00 x-fold of forskolin | 0.86 x-fold of forskolin | – | – | – | – | – | – | – | –
2 | NPENDTPFGTMRF-NH2 [FLP-3-4, C. elegans FMRFamide-like peptide, C-terminally amidated, synthesized by SPPS] | – | – | – | – | – | – | – | – | 0.87 x-fold of forskolin | 0.89 x-fold of forskolin | 1.10 x-fold of forskolin | 3.95 x-fold of forskolin | 0.85 x-fold of forskolin | 0.89 x-fold of forskolin | 0.85 x-fold of forskolin | 0.26 x-fold of forskolin
3 | PrRP31 [reference compound] | – | – | – | – | – | – | – | – | 1.30 x-fold of forskolin | 1.41 x-fold of forskolin | 0.91 x-fold of forskolin | 1.10 x-fold of forskolin | 1.10 x-fold of forskolin | 1.29 x-fold of forskolin | 0.96 x-fold of forskolin | 1.25 x-fold of forskolin
4 | RGPSGPLAF-NH2 [[R8A]FLP-15-2] | 0.84 x-fold of forskolin | 0.85 x-fold of forskolin | 0.98 x-fold of forskolin | 0.93 x-fold of forskolin | 0.97 x-fold of forskolin | 0.88 x-fold of forskolin | 0.92 x-fold of forskolin | 0.99 x-fold of forskolin | – | – | – | – | – | – | – | –
5 | TPDINPAWYASRGIRPVGRF-NH2 [PrRP20, human prolactin-releasing peptide, 20 residues, reference compound] | – | – | – | – | – | – | – | – | 1.14 x-fold of forskolin | 1.45 x-fold of forskolin | 0.90 x-fold of forskolin | 1.05 x-fold of forskolin | 1.00 x-fold of forskolin | 1.23 x-fold of forskolin | 0.96 x-fold of forskolin | 1.19 x-fold of forskolin
6 | TSGPLGNLAEELNGYSRKKGGFSFRF-NH2 [QRFP26, human pyroglutamylated RFamide peptide, 26 residues, reference compound] | – | – | – | – | – | – | – | – | 1.17 x-fold of forskolin | 0.84 x-fold of forskolin | 0.84 x-fold of forskolin | 2.19 x-fold of forskolin | 0.90 x-fold of forskolin | 0.97 x-fold of forskolin | 0.97 x-fold of forskolin | 0.93 x-fold of forskolin
